Measured values from patent US11225460B2, “Pyrrolidineamide derivatives and uses thereof” (SUNSHINE LAKE PHARMA CO., LTD., priority 2019, dated 2022).

Legend:
[1] = target: T1, Human recombinant monoamine oxidase A (Homo sapiens, UniProt P21397); assay: Inhibitory effect on the activity of monoamine oxidase A; assay type: biochemical; settings: human recombinant MAO-A, substrate p-tyramine hydrochloride
T1 construct: host or cells: Sf9 cells
T1 sequence (P21397 1-527): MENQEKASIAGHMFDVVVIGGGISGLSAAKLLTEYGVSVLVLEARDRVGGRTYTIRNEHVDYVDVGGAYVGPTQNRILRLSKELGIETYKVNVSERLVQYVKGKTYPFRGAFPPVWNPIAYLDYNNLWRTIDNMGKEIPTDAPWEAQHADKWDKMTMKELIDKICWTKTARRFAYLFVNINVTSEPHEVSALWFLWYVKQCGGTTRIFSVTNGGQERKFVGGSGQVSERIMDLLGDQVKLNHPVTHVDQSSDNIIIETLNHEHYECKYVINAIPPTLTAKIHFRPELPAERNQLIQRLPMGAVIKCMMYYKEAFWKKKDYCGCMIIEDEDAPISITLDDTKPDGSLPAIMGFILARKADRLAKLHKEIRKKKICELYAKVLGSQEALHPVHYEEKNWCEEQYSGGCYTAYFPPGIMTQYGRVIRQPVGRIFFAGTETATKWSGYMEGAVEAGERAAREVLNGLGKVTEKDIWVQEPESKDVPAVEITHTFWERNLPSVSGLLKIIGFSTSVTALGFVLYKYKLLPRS
Procedure: Human recombinant monoamine oxidase A expressed in Sf9 cells was used in the test system. In the experiment, firstly, the recombinant monoamine oxidase A was dissolved in the pre-configured HEPES buffer (0.8% NaCl, 0.037% KCl, 0.0135% Na2HPO4.2H2O, 0.1% Glucan, 0.5% HEPES, pH=7.0) at a concentration of 0.3 μg/μL. To each well of a 384-well plate was added 10 μL of monoamine oxidase A solution, and the test compound with different concentrations (the final concentration of DMSO was 1%) (10 gradient concentrations were 10 mM, 1 mM, 100 μM, 10 μM, 1 μM, 100 nM, 10 nM, 1 nM, 0.1 nM, 0.01 nM) were added into the wells, respectively. The standard reference compound was Clorgyline, the plate was incubated at room temperature for 15 min. Then, each well filled with […] (p-Tyramine hydrochloride, 1 mM) was incubated at room temperature for 60 min. Then 20 μL of fluorescein detection reagent was added to each well, which was fully blended and incubated at room temperature for 20 minutes to produce stable fluorescence signal. The fluorescence signal was read by fluorescein labeling instrument, and the value was expressed by relative light intensity (RLU). The inhibitory rate on enzyme activity was calculated according to the experimental results, the calculated formula: Inh %=(Max−Signal)/(Max−Min)*100, wherein Max was the detected value at the maximum concentration of the sample, Min was the detected value at the minimum concentration of the sample, and Signal was the detected value at the current concentration of the sample.
(§1) The standard curve was obtained through the series concentration by experimental test to calculate the IC50.

[2] = target: T2, Human recombinant monoamine oxidase B (Homo sapiens, UniProt P27338); assay: Inhibitory effect on the activity of monoamine oxidase B; assay type: biochemical; settings: human recombinant MAO-B, substrate benzylamine hydrochloride
T2 construct: host or cells: Sf9 cells
T2 sequence (P27338 1-520): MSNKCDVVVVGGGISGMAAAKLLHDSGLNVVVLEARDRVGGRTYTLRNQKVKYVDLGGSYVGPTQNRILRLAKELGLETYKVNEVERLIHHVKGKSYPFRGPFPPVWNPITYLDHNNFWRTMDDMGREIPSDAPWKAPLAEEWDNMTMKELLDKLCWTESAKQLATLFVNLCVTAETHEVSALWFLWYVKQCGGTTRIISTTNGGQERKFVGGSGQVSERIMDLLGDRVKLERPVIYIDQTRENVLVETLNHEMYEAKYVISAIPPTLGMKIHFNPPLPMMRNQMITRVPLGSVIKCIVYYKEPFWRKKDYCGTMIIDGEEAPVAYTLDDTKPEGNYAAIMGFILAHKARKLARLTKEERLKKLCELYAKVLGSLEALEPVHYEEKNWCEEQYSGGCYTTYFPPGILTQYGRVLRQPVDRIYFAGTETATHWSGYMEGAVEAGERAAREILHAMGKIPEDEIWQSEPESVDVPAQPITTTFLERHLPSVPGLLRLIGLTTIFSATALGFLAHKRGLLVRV
Procedure: Human recombinant monoamine oxidase B expressed in Sf9 cells was used in the test system. In the experiment, firstly, the recombinant monoamine oxidase B was dissolved in the pre-configured HEPES buffer (0.8% NaCl, 0.037% KCl, 0.0135% Na2HPO4.2H2O, 0.1% Glucan, 0.5% HEPES, pH=7.0) at a concentration of 0.3 μg/μL. To each well of a 384-well plate was added 10 μL of monoamine oxidase B solution, and the test compound with different concentrations (the final concentration of DMSO was 1%) (10 gradient concentrations were 10 mM, 1 mM, 100 μM, 10 μM, 1 μM, 100 nM, 10 nM, 1 nM, 0.1 nM, 0.01 nM) were added into the wells respectively. The standard reference compound was R-(−)-Deprenyl, the plate was incubated at room temperature for 15 min. Then, each well filled with 10 μL substrate solution (Benzylamine hydrochloride, 1 mM) was incubated at room temperature for 60 min. Then 20 μL of fluorescein detection reagent was added to each well, which was fully blended and incubated at room temperature for 20 minutes to produce stable fluorescence signal. The fluorescence signal was read by fluorescein labeling instrument, and the value was expressed by relative light intensity (RLU). The inhibitory rate on enzyme activity was calculated according to the experimental results, the calculated formula: Inh %=(Max−Signal)/(Max−Min)*100, wherein Max was the detected value at the maximum concentration of the sample, Min was the detected value at the minimum concentration of the sample, and Signal was the detected value at the current concentration of the sample.
as §1

[3] = Pharmacokinetic evaluation after intravenous or gavage administration in rats; assay type: in vivo, SD rats
Procedure: The LC-MS/MS system comprises Agilent 1200 series vacuum degassing furnace, quaternary pumps, well-plate autosampler, thermostatted column compartment, the API4000Qtrap Triple Quadrupole Mass Spectrometer with an electrospray ionization (ESI) source. Quantitative analysis was carried out using MRM mode. The parameters for MRM transitions are in Table 2.
Analysis was carried out on waters xbridge C18 (2.1×50 mm, […] column, 0.5 μL of sample), the analytic conditions are mobile phases cosisting of water+2 mM ammonium formate+0.1% formic acid (Phase A) and methanol+2 mM ammonium formate+0.1% formic acid (Phase B). The flow rate was 0.4 mL/min. And the gradient of Mobile phase was in Table 3.
Each animal species was divided into two groups: one was administered intravenously and the other was administered intragastrically. The compounds disclosed herein were administered in form of a solution containing 5% DMSO+5% Kolliphor HS15+90% Saline. For the group of intravenous administration, the administration dose was 1 mg/kg, and vein blood samples (0.3 ml) were collected at the time points of 0.083, 0.25, 0.5, 1.0, 2.0, 4.0, 6.0, 8.0 and 24 h after drug administration, then plasma solutions were collected by centrifuging each blood sample at 3000 rpm or 4000 rpm for 10 minutes and kept at −20° C. or −70° C. For the group of intragastric administration, the administration dose was 5 mg/kg, and vein blood samples (0.3 mL) were collected at the time points of 0.25, 0.5, 1.0, 2.0, 4.0, 6.0, 8.0 and 24 h after drug administration, then plasma solutions were collected by centrifuging each blood sample at 3000 rpm or 4000 rpm for 10 minutes and kept at −20° C. or −70° C.
20 μL of plasma was blended with 120 μl, 50 ng/ml propranolol standard water solution, then the mixture was extracted with 1.0 mL methyl tert-butyl ether (MTBE), 0.7 mL of supernatant was dried by blow with nitrogen and then dissolved again with 220 μL methanol water (methanol/water (v/v)=1/1). LC-MS/MS method was used to detect the concentration of the target compounds, and […] was used to calculate the pharmacokinetic parameters.

[4] = SD, rat, plasma, iv, i.v group, 1 mg/kg
[5] = SD, rat, plasma, po, i.g group, 5 mg/kg

Structure (SMILES): C[C@H]1C[C@@H](C(N)=O)N(Cc2ccc(OCc3cccc(F)c3)cc2F)C1 [Example 15, (2S,4S)-1-(2-fluoro-4-(3-fluorobenzyloxy)benzyl)-4-methylpyrrolidine-2-formamide]
- IC50 [1]: 29000 nM
- IC50 [2]: 130 nM

Structure (SMILES): NC(=O)[C@@H]1C[C@@H](F)CN1Cc1ccc(OCc2cccc(F)c2)cc1 [Example 12, (2S,4R)-4-fluoro-1-(4-(3-fluorobenzyloxy)benzyl)pyrrolidine-2-formamide]
- IC50 [2]: 720 nM
- AUC(0-inf) [3, 4]: 453 ng·h/mL
- AUC(0-t) [3, 4]: 452 ng·h/mL
- Cmax [3, 4]: 661 ng/mL
- MRT inf [3, 4]: 40 min
- Tmax [3, 4]: 4.98 min
- clearance [3, 4]: 36.8 mL/min/kg
- half-life [3, 4]: 37 min
- AUC(0-inf) [3, 5]: 1830 ng·h/mL
- AUC(0-t) [3, 5]: 1820 ng·h/mL
- Cmax [3, 5]: 1010 ng/mL
- MRT inf [3, 5]: 78.6 min
- Tmax [3, 5]: 20 min
- half-life [3, 5]: 39.1 min
- F ([3]; i.g group, 5 mg/kg): 80.7%

Structure (SMILES): C[C@H]1C[C@@H](C(N)=O)N(Cc2ccc(OCc3cccc(F)c3)cc2)C1 [Example 14, (2S,4S)-1-(4-(3-fluorobenzyloxy)benzyl)-4-methylpyrrolidine-2-formamide]
- IC50 [1]: 27000 nM
- IC50 [2]: 83 nM

Structure (SMILES): CC1(C)C[C@@H](C(N)=O)N(Cc2ccc(OCc3cccc(F)c3)cc2)C1 [Example 8, (S)-1-(4-(3-fluorobenzyloxy)benzyl)-4,4-dimethylpyrrolidine-2-formamide]
- IC50 [2]: 1400 nM

Structure (SMILES): NC(=O)[C@@H]1CC(F)(F)CN1Cc1ccc(OCc2cccc(F)c2)cc1 [Example 10, (S)-4,4-difluoro-1-(4-(3-fluorobenzyloxy)benzyl)pyrrolidine-2-formamide]
- IC50 [2]: 1100 nM

Structure (SMILES): NC(=O)[C@@H]1CC(F)(F)CN1Cc1ccc(OCc2cccc(F)c2)cc1F [Example 11, (S)-4,4-difluoro-1-(2-fluoro-4-(3-fluorobenzyloxy)benzyl) pyrrolidine-2-formamide]
- IC50 [2]: 2200 nM
